# Experimental data taken from ChEMBL document CHEMBL1201862, “PubChem BioAssay data set” (2004).
# Activity calls are given as the source filed them.
# How the values were obtained:
# [1] = intracellular Trypanosoma cruzi inhibitors in host cells – cell-based, plate reader, cherry-pick samples, set 3, dose response (AID 651818); assay type: functional;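 also: compounds incubated with infected cells for about four days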
# [2] = molecular target: T1, DNA repair protein RAD52 homolog (Homo sapiens, UniProt P43351); assay type: functional, biochemical
# T1 sequence (P43351 whole entry): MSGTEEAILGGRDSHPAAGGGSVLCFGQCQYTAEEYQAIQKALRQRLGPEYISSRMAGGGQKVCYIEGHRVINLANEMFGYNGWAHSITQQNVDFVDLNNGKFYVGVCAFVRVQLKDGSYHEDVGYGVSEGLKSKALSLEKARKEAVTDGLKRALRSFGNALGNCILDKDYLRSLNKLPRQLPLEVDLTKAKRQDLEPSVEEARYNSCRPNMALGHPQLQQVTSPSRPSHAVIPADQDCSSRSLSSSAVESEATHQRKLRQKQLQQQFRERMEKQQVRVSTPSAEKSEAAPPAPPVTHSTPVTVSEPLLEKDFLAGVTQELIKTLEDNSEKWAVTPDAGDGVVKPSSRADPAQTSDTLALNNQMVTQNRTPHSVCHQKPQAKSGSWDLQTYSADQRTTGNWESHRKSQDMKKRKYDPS
# [3] = toxicity to human hepatoma HepG2 cells – cell-based, cherry-picked samples, cytotoxicity control, dose response (AID 1159577); assay type: functional
# [4] = P. falciparum Dd2 growth inhibitors, dose response, SYBR Green, cherry-picked samples (AID 1159567); assay type: functional, cell-based
# [5] = growth inhibition of PfATP4-mutant resistant parasites – NITD609-resistant line, SYBR Green, dry powder, dose response (AID 1159571); assay type: functional, cell-based;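 also: parasites synchronized at ring stage by sorbitol before testing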
# [6] = Dd2 malaria parasite growth inhibition potency – SYBR Green, dry powder samples, dose response (AID 1159566); assay type: functional, cell-based;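 also: potency for growth inhibition with lower SYBR green DNA signal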
# [7] = toxicity to human HepG2 hepatoma cells – cell-based, plate reader, dry powder samples, cytotoxicity control, dose response (AID 1159569); assay type: functional;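 also: inhibitor potency with signal falling toward the positive control level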
# [8] = growth inhibition of yeast DHODH-expressing 3D7 parasites – SYBR Green, dry powder samples, dose response (AID 1159570); assay type: functional, cell-based;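 also: parasite growth measured after 72 hours of compound exposure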
Compound,AC50 [1],AC50 [3],AC50 [4],AC50 [5],AC50 [6],AC50 [7],AC50 [8],other results
C[C@H](CO)N1C[C@H](C)[C@@H](CN(C)S(=O)(=O)c2ccc(F)cc2)Oc2c(NC(=O)NC3CCCCC3)cccc2C1=O,7.84 µM (active),–,–,–,–,–,–,–
Cc1ccc(S(=O)(=O)Nc2ccc3c(c2)C(=O)N([C@@H](C)CO)C[C@H](C)[C@H](CN(C)Cc2ccc(-c4ccccc4)cc2)O3)cc1,5.6 µM (active),–,–,–,–,–,–,–
C[C@@H]1CCCCO[C@@H](CN(C)Cc2ccc(C(=O)Nc3ccccc3N)cc2)[C@@H](C)CN([C@H](C)CO)C(=O)c2cc(NS(=O)(=O)c3cccs3)ccc2O1,2.39 µM (active),–,–,–,–,–,–,–
C[C@H]1CN([C@@H](C)CO)C(=O)Cc2cc(NS(=O)(=O)c3ccc(Cl)cc3)ccc2O[C@@H]1CN(C)Cc1ccc(Oc2ccccc2)cc1,3.33 µM (active),–,–,–,–,–,–,–
C[C@@H]1CN([C@H](C)CO)C(=O)Cc2cc(NS(=O)(=O)c3ccc(Cl)cc3)ccc2O[C@H]1CN(C)Cc1ccccc1,3.09 µM (active),–,–,–,–,–,–,–
C[C@H]1CN([C@@H](C)CO)C(=O)CCCn2nncc2CO[C@@H]1CN(C)C(=O)Nc1ccc(N2CCN(C)CC2)cc1,–,–,–,–,–,–,–,AC50 [2]: 28.2 µM (active)
Cc1ccccc1-c1ccc2c(c1)O[C@@H](CN(C)Cc1ccncc1)[C@H](C)CN([C@H](C)CO)S2(=O)=O,–,> 39 µM (inactive),3.9 µM (active),–,–,–,–,–
COc1ccccc1CN1CC2(C1)[C@H](c1ccccc1)[C@@H](CO)N2Cc1ccccc1,–,–,–,0.656 µM (active),0.477 µM (active),24.9 µM (active),0.765 µM (active),–
COc1ccc2c3c(n(C)c2c1)[C@@H](CO)N(C(=O)Nc1ccc(F)cc1)CC31CN(Cc2ccccc2F)C1,–,24.2 µM (active),5.53 µM (active),–,–,–,–,–
COc1cccc(S(=O)(=O)N2CCC3(CC2)CN[C@H](CO)c2[nH]c4cc(OC)ccc4c23)c1,–,–,2.6 µM (active),2.52 µM (active),2.53 µM (active),33.2 µM (active),4.68 µM (active),–
N#C[C@H]1[C@@H](c2ccc(C#Cc3ccccc3F)cc2)[C@@H](CO)N1C(=O)C1CCCC1,–,> 39 µM (inactive),1.84 µM (active),1.88 µM (active),1.18 µM (active),54.2 µM (active),1.69 µM (active),–
CCCc1cn(CC[C@H]2CC[C@H](NS(=O)(=O)c3ccc(-c4ccccc4)cc3)[C@@H](CO)O2)nn1,–,> 39 µM (inactive),4.48 µM (active),–,–,–,–,–
OC[C@@H]1[C@H](c2ccc(-c3ccccc3)cc2)[C@H]2CN(CCC(F)(F)F)CCCCN12,–,21.7 µM (active),2.13 µM (active),1.29 µM (active),0.623 µM (active),18 µM (active),1.15 µM (active),–
